Common to all, as to test: NCI anticancer screen, dose series, 48 h
Assay [1] deals with COLO 205 colon.
In assay [2] the test system is HCC-2998 colon.
Assay [3] relates to HCT-116 colon.
Assay [4] has as its system LOX IMVI melanoma.
Assay [5] concerns MALME-3M melanoma.
The test system of assay [6] is MDA-MB-231 breast.
Assay [7] deals with NCI-H23 lung.
Assay [8] relates to OVCAR-4 ovarian.
Assay [9] concerns PC-3 prostate.
Assay [10] concerns OVCAR-5 ovarian.

The structures appear in SMILES notation.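 Test compounds were applied to cells in 96-well plates for 48 hours at 5 doses. GI50 = concentration required for 50% inhibition of growth. TGI marks complete inhibition of growth.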

`S=c1nc(Cl)cc2[nH]c(Cl)cn12`: the TGI is 8.08 µM in assay [1]; over 100 µM in [2]; 16.6 µM in assay [3]; over 100 µM in assay [4]; over 100 µM in assay [5]; 43.9 µM in [6]. The TGI in [7] is 48.8 µM; in assay [8], 44.9 µM; in assay [9], over 100 µM.
On to `CCOC(=O)/C(=C(/C)NCC(C)C)c1cc(O)c(O)c2c(C)cc(=O)[nH]c12`, for which the GI50 was over 100 µM in [1]; 3.19 µM in assay [3]; 5.78 µM in [4]; 11.4 µM in assay [5]; 4 µM in assay [6]; 5.48 µM in assay [7]. Further, the GI50 was 2.62 µM in [8], 64.7 µM in [10] and 11.1 µM in [9]. Besides, the TGI was over 100 µM in [1]; 30.6 µM in assay [3]; over 100 µM in assay [4]; 70.8 µM in [5]; 94.1 µM in assay [6]; over 100 µM in assay [7]. In addition, the TGI was 50 µM in [8], over 100 µM in assay [10] and over 100 µM in [9].
`C=CN(C)S(C)(=O)=O`: the GI50 in assay [1], in assay [2], in [3], in [4], in assay [5] and in assay [6] was over 100 µM in each case. In addition, the GI50 in assay [8], in assay [10] and in assay [9] was over 100 µM each time. The TGI in assay [1], in assay [2], in assay [3], in assay [4], in [5] and in [6] was over 100 µM each time. Besides, the TGI in assay [8], in assay [10] and in assay [9] was over 100 µM in each case.
With `C=C1C(=O)O[C@@H]2C1C[C@@H](O)C(=C)CC/C=C(\C)CCC[C@H](C)[C@H]2OC(C)=O` (stereo not given in full), the GI50 in assay [1] was 2.93 µM; in assay [2], 15.4 µM; in assay [3] it was 1.4 µM; in assay [4], 2.14 µM; in assay [6], 4.07 µM; in assay [7], 3.71 µM. For the same compound, the GI50 in assay [8] is 4.65 µM; in assay [10], 10.3 µM; in assay [9], 6.1 µM. The TGI is over 100 µM in [1]; 29.2 µM in assay [2]; 3.06 µM in [3]; 6.07 µM in [4]; 18.6 µM in assay [6]; 15 µM in [7]. In addition, the figures for the TGI in assay [8], in assay [10] and in assay [9] were 28 µM, 22.4 µM and 22.9 µM, respectively.
Take `Cc1ccc(-c2nc(N3CCCNCC3)c3oc(-c4ccccc4)nc3n2)cc1`: the GI50 was 1.89 µM in [1]; 1.82 µM in assay [2]; 1.71 µM in assay [4]; 1.93 µM in assay [5]; 1.77 µM in assay [6]; 1.95 µM in assay [7]. Further, the GI50 is 1.82 µM in assay [8], 1.9 µM in assay [10] and 1.57 µM in assay [9]. Besides, the TGI was 3.5 µM in assay [1]; 3.27 µM in assay [2]; 3.2 µM in assay [4]; 3.48 µM in assay [5]; 3.27 µM in assay [6]; 3.71 µM in assay [7]. Also, the TGI was found to be 3.55 µM in assay [8], 3.38 µM in assay [10] and 3 µM in assay [9].
Take `N#CC1=C(N)NC(=S)NC12Nc1ccccc1N2`: the GI50 was 32.6 µM in assay [1]; 50 µM in assay [3]; 80.1 µM in assay [4]; 13.5 µM in assay [5]; over 100 µM in [6]; 36.7 µM in assay [7]. Besides, the GI50 is over 100 µM in assay [8], 46.8 µM in assay [10] and 28.5 µM in assay [9]. Also, the TGI in assay [1] is over 100 µM; in assay [3] it was over 100 µM; in assay [4], over 100 µM; in assay [5], 69.2 µM; in assay [6], over 100 µM; in assay [7] it was over 100 µM. Also, the TGI in assay [8], in assay [10] and in assay [9] was over 100 µM in each case.
Consider `C=C(C)[C@@H]1CC[C@]2(CO)CC[C@]3(C)[C@H](CC[C@@H]4[C@@]5(C)CCC(NCCc6ccc(O)cc6)C(C)(C)[C@@H]5CC[C@]43C)[C@@H]12` (stereo not given in full), for which the GI50 in [1] is 1.12 µM; in [2], 0.97 µM; in [3] it was 1.39 µM; in assay [4] it was 0.783 µM; in assay [6], 1.64 µM; in assay [7] it was 1.79 µM. Moreover, the GI50 in [8] was 1.7 µM; in assay [10], 1.59 µM; in assay [9] it was 1.3 µM. Further, the TGI in [1] stood at 2.68 µM; in assay [2], 2.23 µM; in assay [3] it was 2.84 µM; in [4] it was 2.09 µM; in assay [6], 3.09 µM; in [7], 3.35 µM. Besides, the values for the TGI in assay [8], in assay [10] and in [9] were 3.18 µM, 2.96 µM and 2.64 µM, respectively.
Take `O=C(NCc1ccco1)c1ccc(NC2=C(Cl)C(=O)N(Cc3ccccc3)C2=O)cc1`: the GI50 in [1] was 28.4 µM; in assay [2], 22.9 µM; in [3] it was 10.2 µM; in assay [4] it was over 100 µM; in assay [6], 24 µM; in assay [7], 13.8 µM. For the same compound, the GI50 in assay [8] is 51.3 µM; in [10], 19.7 µM; in [9], 17.5 µM. The TGI in assay [1] was 80.1 µM; in assay [2], 37.4 µM; in assay [3] it was 21.8 µM; in assay [4], over 100 µM; in assay [6], 62.1 µM; in [7] it was 27.5 µM. The TGI was over 100 µM in assay [8], 44.9 µM in assay [10] and 32.5 µM in assay [9].

The record behind these values is PubChem BioAssay (NCI).
